How the values were obtained:
KPC-2 β-lactamase = target: T1, KPC-2 β-lactamase (Klebsiella pneumoniae, UniProt Q9F663); assay: β-lactamase enzyme inhibition, KPC-2; assay type: biochemical; conditions: imipenem substrate, 300 nm; 15 min at 37° C. preincubation; read-out: IC50 KPC-2 (Class A)
T1 construct: made in house; host or cells: E. coli BL21(DE3)
How it was run: (§1)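 Enzyme + inhibitor, 15 min, 37° C; substrate added, absorbance read 10 min. OXA-1/p99 AmpC: nitrocefin 100 μM final, A486. KPC-2: imipenem, A300. SHV-5: cefotaxime, A260. IC50 = 50% drop in initial hydrolysis rate vs no-inhibitor control.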

p99 AmpC β-lactamase = target: T2, p99 AmpC β-lactamase (Enterobacter cloacae, UniProt P05364); assay: β-lactamase enzyme inhibition, p99 AmpC; assay type: biochemical
T2 construct: made in house; host or cells: E. coli BL21(DE3)
T2 sequence (P05364 21-381): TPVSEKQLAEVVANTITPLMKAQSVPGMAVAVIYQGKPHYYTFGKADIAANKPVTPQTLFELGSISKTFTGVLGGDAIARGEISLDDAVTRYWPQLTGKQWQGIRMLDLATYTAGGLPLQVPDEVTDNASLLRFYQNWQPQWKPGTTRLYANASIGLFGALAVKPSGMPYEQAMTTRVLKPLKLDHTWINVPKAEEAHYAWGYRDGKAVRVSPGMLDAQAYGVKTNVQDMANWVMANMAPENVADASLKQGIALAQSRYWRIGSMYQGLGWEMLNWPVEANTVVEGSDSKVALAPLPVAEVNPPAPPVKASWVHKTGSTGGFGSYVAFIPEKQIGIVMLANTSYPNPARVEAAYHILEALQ
How it was run: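 Inhibitor and enzyme were incubated 15 min at 37°C first. The enzyme was recombinant p99 AmpC, untagged, from E. coli BL21(DE3), purified by ion-exchange and size-exclusion chromatography.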

SHV-5 β-lactamase = target: T3, SHV-5 β-lactamase (Klebsiella pneumoniae, UniProt P0A3M1); assay: β-lactamase enzyme inhibition, SHV-5; assay type: biochemical
T3 construct: made in house; host or cells: E. coli BL21(DE3)
T3 sequence (P0A3M1 22-286): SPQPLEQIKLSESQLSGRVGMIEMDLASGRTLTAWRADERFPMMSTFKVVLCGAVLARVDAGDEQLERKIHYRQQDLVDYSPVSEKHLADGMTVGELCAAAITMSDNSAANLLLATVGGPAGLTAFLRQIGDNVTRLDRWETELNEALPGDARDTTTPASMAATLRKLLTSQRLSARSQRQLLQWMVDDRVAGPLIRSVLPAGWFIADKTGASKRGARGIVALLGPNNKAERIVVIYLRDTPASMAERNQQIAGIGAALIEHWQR
How it was run: as §1

[1] = tested on: E. cloacae 144200 expressing Class C P99 AmpC; assay: broth microdilution MIC, E. cloacae P99; assay type: cell-based; conditions: Fixed CAZ (ceftazidime) 4 μg/mL
How it was run: (§2)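 Visual MIC readout after 16-20 hours at 37° C, reflecting compound concentration that restores growth inhibition by a beta-lactam held constant at 4 μg/mL. Compound was titrated 2-fold, 32 to 0.25 μg/mL final, in cation-adjusted Mueller Hinton broth.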

OXA-1 β-lactamase = target: T4, OXA-1 β-lactamase (Escherichia coli, UniProt P13661); assay: β-lactamase enzyme inhibition, OXA-1; assay type: biochemical; conditions: Nitrocefin 100 μM, 486 nm; 15 min at 37° C. preincubation; read-out: IC50 OXA-1 (Class D)
T4 construct: made in house; host or cells: E. coli BL21(DE3)
T4 sequence (P13661 26-276): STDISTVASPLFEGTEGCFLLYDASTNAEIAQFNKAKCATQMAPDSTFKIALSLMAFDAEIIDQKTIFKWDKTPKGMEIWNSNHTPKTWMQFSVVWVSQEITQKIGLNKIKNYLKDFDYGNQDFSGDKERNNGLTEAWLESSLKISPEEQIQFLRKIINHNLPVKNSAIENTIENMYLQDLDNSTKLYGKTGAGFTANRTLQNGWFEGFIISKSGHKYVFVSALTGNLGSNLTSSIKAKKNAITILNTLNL
Method: For SHV-5, Kpc-2, p99AmpC and OXA-1 β-lactamases, E. coli BL21(DE3) bacterial cells carrying expression plasmids (expressed as native untagged proteins) for the individual β-lactamases were grown in 1 L of Superbroth (Teknova Inc. Hollister, Calif.) supplemented with 100 μg/ml kanamycin selection and 1×5052 (0.5% glycerol, 0.05% glucose and 0.2% α-lactose) at 35° C. for 18-20 hours. Cells were harvested by centrifugation (4,000×g, 4° C., 20 min), resuspended in 50 ml of 10 mM HEPES pH 7.5 ( 1/20 of the initial volume). The cells were lysed by sonication (5 pulses of 45 seconds) at 45 W on ice. The lysates were clarified by centrifugation at 10,000×g for 40 minutes at 4° C. Samples were diluted 5-fold in 50 mM sodium acetate pH 5.0, stored overnight at 4° C., after which they were centrifuged at 10,000×g for 30 minutes to clarify, and filtered through 0.45 μm filters. The samples were loaded onto a 5 ml Capto S sepharose cation exchange column (GE Healthcare) pre-equilibrated with 50 mM sodium acetate pH 5.0. The column was washed with 5 column volumes of 50 mM sodium acetate pH 5.0 to wash out unbound protein and a linear gradient of NaCl (0 to 500 mM) was used to elute the protein (over 16 CV) from the column. Fractions were assayed for […] activity using Centa (Calbiochem, Gibbstown, N.J.) or Nitrocefin (EMD Millipore chemicals, Darmstadt, Germany) as a reporter β-lactamase substrate for activity in the isolated fractions. Active fractions were pooled, concentrated and further purified by gel filtration chromatography on a Superdex 75 prep grade gel filtration column (GE Healthcare, Piscataway, N.J.) pre-equilibrated in 50 mM Hepes pH 7.5, 150 mM NaCl. Active fractions were pooled, concentrated, and quantitated by BCA protein determination (Thermo Scientific, Rockford, Ill.), dialyzed into PBS and frozen at −80° C. in 20% glycerol until use.
An equal volume of diluted enzyme stock was added, and the plates were incubated at 37° C. for 15 min. Nitrocefin was used as substrate for p99 AmpC, VIM-2 and OXA-1 and dispensed into each well at a final concentration of 100 μM. Absorbance at 486 nm was immediately monitored for 10 min using a Biotek Powerwave XS2 microplate spectrophotometer using the GEN5 software package (Biotek Instruments, Winooski Vt.). In an analogous fashion, imipenem was used as substrate for KPC-2 and Cefotaxime was used for SHV-5, while changes in absorbance upon hydrolysis of the β-lactam ring were monitored at 300 nm and 260 nm respectively in UV-transparent 96-well microtiter assay plates. Maximum rates of hydrolysis were compared to those in control wells (without inhibitors), and percentages of enzyme inhibition were calculated for each concentration of inhibitor. The concentration of inhibitor needed to reduce the initial rate of hydrolysis of substrate by 50% (IC50) was calculated as the residual activity of β-lactamase at 486 nm using GraFit version 7 kinetics software package (Erithacus Software, Surrey, UK).
Using the methodology described above, examples of the current invention were evaluated for their ability to inhibit β-lactamase enzymes from all four Ambler classifications (A through D). […] NT=Not tested.

[2] = tested on: E. coli ESBL4 expressing CTX-M-15; assay: broth microdilution MIC, E. coli CTX-M-15; assay type: cell-based; conditions: Fixed CAZ (ceftazidime) 4 μg/mL
How it was run: as §2

[3] = tested on: K. pneumoniae A-1797 expressing KPC-2 and VIM-4; assay: broth microdilution MIC, K. pneumoniae KPC-2 and VIM-4; assay type: cell-based; conditions: Fixed Mero (meropenem) 4 μg/mL
How it was run: as §2

[4] = target: T5, VIM-2 metallo β-lactamase (Pseudomonas aeruginosa, UniProt Q9K2N0); assay: β-lactamase enzyme inhibition, VIM-2; assay type: biochemical; conditions: Nitrocefin 100 μM, 486 nm; 15 min at 37° C. preincubation; read-out: IC50 VIM-2 (Class B)
T5 construct: made in house; host or cells: E. coli BL21(DE3)
How it was run: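 Inhibitor and enzyme sat together 15 min at 37° C before 100 μM nitrocefin (final) was added and 486 nm absorbance read for 10 min. IC50 is the concentration halving initial hydrolysis rate relative to uninhibited wells. Protein came from Q sepharose anion exchange at pH 7.5, repeated to >90% purity.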

[5] = tested on: K. pneumoniae 156319 expressing KPC-3; assay: broth microdilution MIC, K. pneumoniae KPC-3; assay type: cell-based; conditions: Fixed Mero (meropenem) 4 μg/mL
How it was run: as §2

T1 sequence (Q9F663 25-293, looked up): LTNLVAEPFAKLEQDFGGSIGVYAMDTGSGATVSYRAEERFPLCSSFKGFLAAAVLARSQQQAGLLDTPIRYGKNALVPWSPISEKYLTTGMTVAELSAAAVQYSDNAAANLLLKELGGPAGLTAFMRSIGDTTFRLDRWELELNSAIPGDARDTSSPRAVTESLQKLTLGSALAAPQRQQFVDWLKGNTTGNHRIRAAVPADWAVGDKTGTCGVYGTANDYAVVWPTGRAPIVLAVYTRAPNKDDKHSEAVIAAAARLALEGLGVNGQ

Row | Compound | IC50 (KPC-2 β-lactamase) | IC50 (p99 AmpC β-lactamase) | IC50 (SHV-5 β-lactamase) | MIC of exemplary compounds in presence of fixed β-lactams, E. cl. 144200 p99 AmpC [1] | IC50 (OXA-1 β-lactamase) | MIC of exemplary compounds in presence of fixed β-lactams, E. coli ESBL4 CTX-M-15 [2] | MIC of exemplary compounds in presence of fixed β-lactams, K.P. A-1797 KPC-2 VIM-4 [3] | IC50 [4] | MIC of exemplary compounds in presence of fixed β-lactams, K.P. 156319 KPC-3 [5]
1 | CC(=O)CC(=O)CCC(=O)N[C@H]1Cc2cccc(C(=O)O)c2OB1O [Example 41, (R)-3-(4,6-Dioxo-heptanoylamino)-2-hydroxy-3,4-dihydro-2H-benzo[e][1,2]oxaborinine-8-carboxylic acid] | 100 to 1000 nM | < 100 nM | < 100 nM | C (C represents the MIC in the presence of ≤4 g/mL of a β-lactamase inhibitor) | < 100 nM | C (C represents the MIC in the presence of ≤4 g/mL of a β-lactamase inhibitor) | C (C represents the MIC in the presence of ≤4 g/mL of a β-lactamase inhibitor) | < 100 nM | B (B represents the MIC in the presence of between 8 and 32 g/mL of a β-lactamase inhibitor)
2 | O=C(CCC(=O)c1ccccc1)N[C@H]1Cc2cccc(C(=O)O)c2OB1O [Example 42, (R)-2-Hydroxy-3-(4-oxo-4-phenyl-butyrylamino)-3,4-dihydro-2H-benzo[e][1,2]oxaborinine-8-carboxylic acid] | < 100 nM | < 100 nM | < 100 nM | C (C represents the MIC in the presence of ≤4 g/mL of a β-lactamase inhibitor) | < 100 nM | C (C represents the MIC in the presence of ≤4 g/mL of a β-lactamase inhibitor) | B (B represents the MIC in the presence of between 8 and 32 g/mL of a β-lactamase inhibitor) | 100 to 1000 nM | B (B represents the MIC in the presence of between 8 and 32 g/mL of a β-lactamase inhibitor)
3 | CC(C)(C#N)CC(=O)N[C@H]1Cc2cccc(C(=O)O)c2OB1O [Example 43, (R)-3-(3-Cyano-3,3-dimethyl-propionylamino)-2-hydroxy-3,4-dihydro-2H-benzo[e][1,2]oxaborinine-8-carboxylic acid] | < 100 nM | 100 to 1000 nM | 100 to 1000 nM | C (C represents the MIC in the presence of ≤4 g/mL of a β-lactamase inhibitor) | < 100 nM | C (C represents the MIC in the presence of ≤4 g/mL of a β-lactamase inhibitor) | B (B represents the MIC in the presence of between 8 and 32 g/mL of a β-lactamase inhibitor) | 100 to 1000 nM | C (C represents the MIC in the presence of ≤4 g/mL of a β-lactamase inhibitor)
4 | N#CCCC(=O)N[C@H]1Cc2ccc(F)c(C(=O)O)c2OB1O [Example 46, (R)-3-(3-Cyano-propionylamino)-7-fluoro-2-hydroxy-3,4-dihydro-2H-benzo[e][1,2]oxaborinine-8-carboxylicacid] | < 100 nM | < 100 nM | < 100 nM | C (C represents the MIC in the presence of ≤4 g/mL of a β-lactamase inhibitor) | < 100 nM | C (C represents the MIC in the presence of ≤4 g/mL of a β-lactamase inhibitor) | B (B represents the MIC in the presence of between 8 and 32 g/mL of a β-lactamase inhibitor) | 100 to 1000 nM | C (C represents the MIC in the presence of ≤4 g/mL of a β-lactamase inhibitor)
5 | CC(=O)CCC(=O)N[C@H]1Cc2ccc(F)c(C(=O)O)c2OB1O [Example 47, (R)-7-Fluoro-2-hydroxy-3-(4-oxo-pentanoylamino)-3,4-dihydro-2H-benzo[e][1,2]oxaborinine-8-carboxylic acid] | < 100 nM | < 100 nM | < 100 nM | C (C represents the MIC in the presence of ≤4 g/mL of a β-lactamase inhibitor) | < 100 nM | C (C represents the MIC in the presence of ≤4 g/mL of a β-lactamase inhibitor) | C (C represents the MIC in the presence of ≤4 g/mL of a β-lactamase inhibitor) | < 100 nM | C (C represents the MIC in the presence of ≤4 g/mL of a β-lactamase inhibitor)
6 | CS(=O)(=O)NCCC(=O)N[C@H]1Cc2ccc(F)c(C(=O)O)c2OB1O [Example 48, (R)-7-Fluoro-2-hydroxy-3-(3-methanesulfonylamino-propionylamino)-3,4-dihydro-2H-benzo[e][1,2]oxaborinine-8-carboxylic acid] | < 100 nM | < 100 nM | < 100 nM | C (C represents the MIC in the presence of ≤4 g/mL of a β-lactamase inhibitor) | < 100 nM | C (C represents the MIC in the presence of ≤4 g/mL of a β-lactamase inhibitor) | B (B represents the MIC in the presence of between 8 and 32 g/mL of a β-lactamase inhibitor) | 100 to 1000 nM | C (C represents the MIC in the presence of ≤4 g/mL of a β-lactamase inhibitor)
7 | N#CCCC(=O)N[C@H]1Cc2cc(F)c(F)c(C(=O)O)c2OB1O [Example 49, (R)-3-(3-Cyano-propionylamino)-6,7-difluoro-2-hydroxy-3,4-dihydro-2H-benzo[e][1,2]oxaborinine-8-carboxylic acid] | < 100 nM | 100 to 1000 nM | < 100 nM | C (C represents the MIC in the presence of ≤4 g/mL of a β-lactamase inhibitor) | < 100 nM | C (C represents the MIC in the presence of ≤4 g/mL of a β-lactamase inhibitor) | B (B represents the MIC in the presence of between 8 and 32 g/mL of a β-lactamase inhibitor) | 1000 to 10000 nM | C (C represents the MIC in the presence of ≤4 g/mL of a β-lactamase inhibitor)

Reference: patent US11008346B2, “Beta-lactamase inhibitors” (priority 2014, dated 2021)
